Among the data in patent US7026326B2, “Substituted heterocyclic compounds and methods of use” (Amgen Inc., priority 2002, dated 2006) are IC50 values, retold here.

This assay relates to LPS induced TNF release. As to the kind of experiment: Lipopolysaccharide-Activated THP1 Cell TNF Production Assay. In kind it is cell-based. To be noted: Homo sapiens, THP-1; THP1 cells, bacterial LPS, TNF-α secretion at 37° C. for 3 h. How it is done:
Lipopolysaccharide-Activated THP1 Cell TNF Production Assay
THP1 cells are resuspended in fresh THP1 media (RPMI 1640, 10% heat-inactivated FBS, 1xPGS, 1XNEAA, plus 30 μM βME) at a concentration of 1E6/mL. One hundred microliters of cells per well are plated in a polystyrene 96-well tissue culture. One microgram per mL of bacterial LPS is prepared in THP1 media and is transferred to the wells. Test compounds are dissolved in 100% DMSO and are serially diluted 3 fold in a polypropylene 96-well microtiter plate (drug plate). HI control and LO control wells contain only DMSO. One microliter of test compound from the drug plate followed by 10 μL of LPS are transferred to the cell plate. The treated cells are induced to synthesize and secrete TNF-α at 37° C. for 3 h. Forty microliters of conditioned media are transferred to a 96-well polypropylene plate containing 110 μL of ECL buffer (50 mM Tris-HCl pH 8.0, 100 mM NaCl, 0.05% Tween 20, 0.05% NaN3 and 1% FBS) supplemented with 0.44 nM MAB610 monoclonal Ab (R&D Systems), 0.34 nM ruthenylated AF210NA polyclonal Ab (R&D Systems) and […] sheep anti-mouse M280 Dynabeads (Dynal). After a 2 h incubation at room temperature with shaking, the reaction is read on the ECL M8 Instrument (IGEN Inc.). A low voltage is applied to the ruthenylated TNF-α immune complexes, which in the presence of TPA (the active component in Origlo), results in a cyclical redox reaction generating light at […]. The amount of secreted TNF-α in the presence of compound compared with that in the presence of DMSO vehicle alone (HI control) is calculated using the formula: % control (POC)=(cpd−average LO)/(average HI−average LO)*100. Data (consisting of POC and inhibitor concentration in μM) is fitted to a 4-parameter equation (y=A+((B−A)/(1+((x/C)^D))), where A is the minimum y (POC) value, B is the maximum y (POC), C is the x (cpd concentration) at the point of inflection and D is the slope factor) using a Levenburg-Marquardt non-linear regression algorithm.
`CC(C)NC[C@H]1CCCN1c1c(Cl)c(-c2ccncc2)c(-c2ccc3ccccc3c2)c(=O)n1C` (stereo in doubt) [Example 29, 5-Chloro-6-[2-(isopropylamino-methyl)-pyrrolidin-1-yl]-1-methyl-3-naphthalen-2-yl-1H-[4,4′]bipyridinyl-2-one] displayed an IC50 of at most 20 µM. The figure for `CC(C)NC[C@H]1CCCN1c1nc(-c2ccncc2)c(-c2ccc(Cl)cc2)c(=O)n1C` [Example 1] is at most 20 µM. Next, `CC(C)NC[C@@H]1CCCN1c1nc(-c2ccncc2)c(-c2ccc(Cl)cc2)c(=O)n1C` [Example 2]: at most 20 µM; `CC(C)NC[C@H]1CCCN1c1nc(-c2ccncc2)c(-c2cccc(Br)c2)c(=O)n1C` [Example 4, 5-(3-Bromo-phenyl)-2-[2-(isopropylamino-methyl)-pyrrolidin-1-yl]-3-methyl-6-pyridin-4-yl-3H-pyrimidin-4-one]: at most 20 µM. Next, `C=Cc1cccc(-c2c(-c3ccncc3)nc(N3CCC[C@@H]3CNC(C)C)n(C)c2=O)c1` [Example 5, 2-[2-(Isopropylamino-methyl)-pyrrolidin-1-yl]-3-methyl-6-pyridin-4-yl-5-(3-vinyl-phenyl)-3H-pyrimidin-4-one]: at most 20 µM; `CC(C)NC[C@H]1CCCN1c1nc(-c2ccncc2)c(-c2cccc(C3CC3)c2)c(=O)n1C` [Example 6, 5-(3-Cyclopropyl-phenyl)-2-[2-(isopropylamino-methyl)-pyrrolidin-1-yl]-3-methyl-6-pyridin-4-yl-3H-pyrimidin-4-one]: at most 20 µM; `Cc1cccc(-c2c(-c3ccncc3)nc(N3CCC[C@@H]3CNC(C)C)n(C)c2=O)c1` [Example 7, 2-[2-(Isopropylamino-methyl)-pyrrolidin-1-yl]-3-methyl-6-pyridin-4-yl-5-m-tolyl-3H-pyrimidin-4-one]: at most 20 µM. `CC(C)NC[C@H]1CCCN1c1nc(-c2ccncc2)c(-c2ccc3ccccc3c2)c(=O)n1C` [Example 8, 2-[2-(Isopropylamino-methyl)-pyrrolidin-1-yl]-3-methyl-5-naphthalen-2-yl-6-pyridin-4-yl-3H-pyrimidin-4-one] came in with an IC50 of at most 20 µM. The figure for `COC[C@@H]1CCCN1c1nc(-c2ccnc(Cl)c2)c(-c2cccc(C)c2)c(=O)n1C` [Example 9, 6-(2-Chloro-pyridin-4-yl)-2-(2-methoxymethyl-pyrrolidin-1-yl)-3-methyl-5-m-tolyl-3H-pyrimidin-4-one] is at most 20 µM; for `COC[C@@H]1CCCN1c1nc(-c2ccnc(N[C@@H](C)c3ccccc3)c2)c(-c2cccc(C)c2)c(=O)n1C` [Example 10, 2-(2-Methoxymethyl-pyrrolidin-1-yl)-3-methyl-6-[2-(1-phenyl-ethylamino)-pyridin-4-yl]-5-m-tolyl-3H-pyrimidin-4-one] it is at most 20 µM. For `C[C@@H](O)CN1CCC(c2cc(-c3ccncc3)c(-c3ccc4ccccc4c3)c(=O)n2C)CC1` [Example 11, 1-(2R-Hydroxy-propyl)-1′-methyl-5′-naphthalen-2-yl-1,2,3,4,5,6-hexahydro-1′H-[4,2′;4′,4″]terpyridin-6′-one], the IC50 was at most 20 µM. The figure for `Cn1c(C2CCN(CC(C)(C)O)CC2)cc(-c2ccncc2)c(-c2ccc3ccccc3c2)c1=O` [Example 13, 1-(2-Hydroxy-2-methyl-propyl)-1′-methyl-5′-naphthalen-2-yl-1,2,3,4,5,6-hexahydro-1′H-[4,2′;4′,4″]terpyridin-6′-one] is at most 20 µM; for `CC(C)NCC1CCCN1c1cc(-c2ccncc2)c(-c2ccc3ccccc3c2)nn1` (stereo not shown) [Example 14, Isopropyl-[1-(6-naphthalen-2-yl-5-pyridin-4-yl-pyridazin-3-yl)-pyrrolidin-2-ylmethyl]-amine] it is at most 20 µM. Next, `Cn1c(C2CNC(CO)C2)cc(-c2ccncc2)c(-c2ccc3ccccc3c2)c1=O` (stereo not shown) [Example 15, 6-[5-(Hydroxymethyl)pyrrolidin-3-yl]-1-methyl-3-(2-naphthyl)-4-(4-pyridyl)-hydropyridin-2-one]: at most 20 µM; `CC(C)N1CC(c2cc(-c3ccncc3)c(-c3ccc4ccccc4c3)c(=O)n2C)CC1CO` (stereo not shown) [Example 16, 6-[5-(hydroxymethyl)-1-(methylethyl)pyrrolidin-3-yl]-1-methyl-3-(2-naphthyl)-4-(4-pyridyl)hydropyridin-2-one]: at most 20 µM; `Cn1c(N2CCCC2CO)cc(-c2ccncc2)c(-c2ccc(Cl)cc2)c1=O` (stereo not shown) [Example 17, 3-(4-chlorophenyl)-6-[2-(hydroxymethyl)pyrrolidinyl]-1-methyl-4-(4-pyridyl)-hydropyridin-2-one]: at most 20 µM.

Consider `Cn1c(C2CCN(C[C@@H](Cc3ccccc3)NC(=O)OC(C)(C)C)CC2)cc(-c2ccncc2)c(-c2ccc3ccccc3c2)c1=O` [Example 18, [(1R)-Benzyl-2-(1′-methyl-5′-naphthalen-2-yl-6′-oxo-3,4,5,6,1′,6′-hexahydro-2H-[4,2′;4′,4″]terpyridin-1-yl)-ethyl]-carbamic acid tert-butyl ester], for which the IC50 is at most 20 µM. The compound `Cn1c(C2CCN(C[C@H](N)Cc3ccccc3)CC2)cc(-c2ccncc2)c(-c2ccc3ccccc3c2)c1=O` [Example 19, 1-{(2R)-Amino-3-phenyl-propyl}-1′-methyl-5′-naphthalen-2-yl-1,2,3,4,5,6-hexahydro-1′H-[4,2′;4′,4″]terpyridin-6′-one] returned an IC50 of at most 20 µM. Next, `CC(C)N[C@H](Cc1ccccc1)CN1CCC(c2cc(-c3ccncc3)c(-c3ccc4ccccc4c3)c(=O)n2C)CC1` [Example 20, 1-{(2R)-Isopropylamino-3-phenyl-propyl}-1′-methyl-5′-naphthalen-2-yl-1,2,3,4,5,6-hexahydro-1′H-[4,2′;4′,4″]terpyridin-6′-one]: at most 20 µM. The figure for `Cn1c(C2CCN(C[C@H](Cc3ccccc3)NC(=O)OC(C)(C)C)CC2)cc(-c2ccncc2)c(-c2ccc3ccccc3c2)c1=O` [Example 21, [(1S)-Benzyl-2-(1′-methyl-5′-naphthalen-2-yl-6′-oxo-3,4,5,6,1′,6′-hexahydro-2H-[4,2′;4′,4″]terpyridin-1-yl)-ethyl]-carbamic acid tert-butyl ester] is at most 20 µM; for `Cn1c(C2CCN(C[C@@H](N)Cc3ccccc3)CC2)cc(-c2ccncc2)c(-c2ccc3ccccc3c2)c1=O` [Example 22, 1-{(2S)-Amino-3-phenyl-propyl}-1′-methyl-5′-naphthalen-2-yl-1,2,3,4,5,6-hexahydro-1′H-[4,2′;4′,4″]terpyridin-6′-one] it is at most 20 µM. The figure for `CC(C)N[C@@H](Cc1ccccc1)CN1CCC(c2cc(-c3ccncc3)c(-c3ccc4ccccc4c3)c(=O)n2C)CC1` [Example 23, 1-{(2S)-Isopropylamino-3-phenyl-propyl}-1′-methyl-5′-naphthalen-2-yl-1,2,3,4,5,6-hexahydro-1′H-[4,2′;4′,4″]terpyridin-6′-one] is at most 20 µM; for `Cn1c(C2CCN(CCNC(=O)OC(C)(C)C)C2)cc(-c2ccncc2)c(-c2ccc3ccccc3c2)c1=O` (stereo not shown) [Example 24, {2-[3-(1-Methyl-5-naphthalen-2-yl-6-oxo-1,6-dihydro-[4,4′]bipyridinyl-2-yl)-pyrrolidin-1-yl]-ethyl}-carbamic acid tert-butyl ester] it is at most 20 µM; for `CC(O)CN1CCC(c2cc(-c3ccncc3)c(-c3ccc4ccccc4c3)c(=O)n2C)C1` (stereo not shown) [Example 25, 6-[1-(2-Hydroxy-propyl)-pyrrolidin-3-yl]-1-methyl-3-naphthalen-2-yl-1H-[4,4′]bipyridinyl-2-one] it is at most 20 µM.

`Cn1c(C2CCN(CC(C)(C)O)C2)cc(-c2ccncc2)c(-c2ccc3ccccc3c2)c1=O` (stereo not shown) [Example 26, 6-[1-(2-Hydroxy-2-methyl-propyl)-pyrrolidin-3-yl]-1-methyl-3-naphthalen-2-yl-1H-[4,4′]bipyridinyl-2-one] had a concentration for half-maximal inhibition (IC50) of at most 20 µM. Turning to `Cn1c(C2CCCN2CCNC(=O)OC(C)(C)C)cc(-c2ccncc2)c(-c2ccc3ccccc3c2)c1=O` (stereo not shown) [Example 27, {2-[2-(1-Methyl-5-naphthalen-2-yl-6-oxo-1,6-dihydro-[4,4′]bipyridinyl-2-yl)-pyrrolidin-1-yl]-ethyl}-carbamic acid tert-butyl ester], the IC50 was at most 20 µM. The compound `Cn1c(C2CCCN2CCN)cc(-c2ccncc2)c(-c2ccc3ccccc3c2)c1=O` (stereo not shown) [Example 28, 6-[1-(2-Amino-ethyl)-pyrrolidin-2-yl]-1-methyl-3-naphthalen-2-yl-1H-[4,4′]bi-pyridinyl-2-one] yielded an IC50 of at most 20 µM. The figure for `CC(C)NC[C@H]1CCCN1c1cc(-c2ccncc2)c(-c2ccc3ccccc3c2)c(=O)n1C` [Example 30, 6-[2-(Isopropylamino-methyl)-pyrrolidin-1-yl]-1-methyl-3-naphthalen-2-yl-1H-4[4,4′]bipyridinyl-2-one] is at most 20 µM.
